Data from PMC11678766, “Identification of Novel Inhibitors of Starch Excess 4 (SEX4)” (Life, 2024).

Key:
Assay type in all cases: biochemical
SEX4 [1] = target: T1, SEX4 (Arabidopsis thaliana, UniProt Q9FEB5); experiment: Phosphatase assay against amylopectin, SEX4; conditions: for Selectivity between SEX4 and LSF2: comparison of IC50 values for SEX4 and LSF2; for Inhibition model, amylopectin assay, SEX4: determined by steady-state kinetic measurements
T1 construct: gift from Dr. Gentry's group, University of Kentucky College of Medicine
T1 sequence (Q9FEB5 90-379 limits assumed): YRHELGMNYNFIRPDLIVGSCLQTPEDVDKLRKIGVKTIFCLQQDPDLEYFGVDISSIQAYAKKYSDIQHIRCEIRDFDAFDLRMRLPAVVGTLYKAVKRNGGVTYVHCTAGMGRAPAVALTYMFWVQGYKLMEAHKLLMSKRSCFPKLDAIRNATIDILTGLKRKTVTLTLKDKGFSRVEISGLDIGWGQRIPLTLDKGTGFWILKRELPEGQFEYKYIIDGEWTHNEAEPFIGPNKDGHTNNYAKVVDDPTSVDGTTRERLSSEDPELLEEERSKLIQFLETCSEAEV
Protocol: (§1) The Arabidopsis thaliana SEX4 lacking the first 89 amino acids (Δ89-SEX4) and LSF2 proteins were kindly provided by Dr. Gentry’s group at the University of Kentucky College of Medicine (Lexington, KY, USA). para-nitrophenyl phosphate disodium salt hexahydrate (pNPP), Malachite green oxalate salt, ammonium molybdate tetrahydrate, and amylopectin from potato starch were purchased from Sigma-Aldrich. Absorbance was measured on a Beckman Coulter (Brea, CA, USA) DU 700 Series UV/Vis Spectrophotometer.
(§2) The phosphatase activity of SEX4 or LSF2 toward amylopectin in the absence or presence of an inhibitor was measured in a reaction mixture with 2 μg SEX4 or LSF2 at 37 °C in 20 μL volume. The reaction mixture contained 100 mM sodium acetate, 50 mM bis-Tris, 50 mM Tris (pH 6.5), 10 mM DTT, and 45 μg amylopectin with or without an inhibitor. […] The release of free inorganic phosphate was determined by measuring the absorbance at 620 nm and the K2HPO4 standard curve.
(§3) The steady-state kinetic parameters were determined by varying substrate concentrations (pNPP 0.5–50 mM; amylopectin 5–45 μg) with or without an inhibitor. The data were fitted by nonlinear regression to the Michaelis–Menten equation using GraphPad PRISM 9.0 software to derive KM and kcat values. […] Inhibition constants (Ki) and inhibition types were determined by varying substrate concentrations in the absence of an inhibitor and in the presence of an inhibitor at the IC50 concentration.
(§4) The process of finding an inhibitor proceeded as follows (Figure 1). […] Then, reproduction experiments were performed with these compounds to select candidate substances. […] In order to assess any difference in selectivity between SEX4 and LSF2 for the selected candidates, the IC50 values of LSF2 were obtained through the pNPP and amylopectin assays and compared with those of SEX4.
(§5) The IC50 values were calculated directly from regression curves using GraphPad PRISM software. The IC50 graph was fitted to the Logistic Equation.

LSF2 [2] = target: T2, LSF2 (Arabidopsis thaliana, UniProt Q9SRK5); experiment: Phosphatase assay against amylopectin, LSF2
T2 construct: gift from Dr. Gentry's group, University of Kentucky College of Medicine
T2 sequence (Q9SRK5 62-282): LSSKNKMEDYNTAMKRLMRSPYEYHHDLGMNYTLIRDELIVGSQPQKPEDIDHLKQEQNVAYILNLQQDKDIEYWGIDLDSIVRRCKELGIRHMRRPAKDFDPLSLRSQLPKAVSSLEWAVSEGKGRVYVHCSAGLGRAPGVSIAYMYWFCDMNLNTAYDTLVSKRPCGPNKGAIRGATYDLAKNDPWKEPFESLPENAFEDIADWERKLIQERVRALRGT
Protocol: as §1, §2, §3, §4

LSF2 [3] = target: T2, LSF2; experiment: Phosphatase assay against pNPP, LSF2
Protocol: as §1
(§6) The phosphatase activity of SEX4 or LSF2 against pNPP in the presence or absence of an inhibitor was measured in this assay. The reaction (20 μL of total volume) of A. thaliana SEX4 or LSF2 was performed in the reaction mixture containing 1~2 μg SEX4 or LSF2, 1X assay buffer pH 5.5 (20 mM sodium acetate, 10 mM bis-Tris, 10 mM Tris, pH with HCl), 5 mM Dithiothreitol (DTT), and 50 mM pNPP (Sigma-Aldrich, Wien, Austria). It was incubated at 37 °C for 10 min with or without an inhibitor. The reaction was terminated by adding 80 μL of 0.25 N NaOH, and absorbance was measured at 410 nm.
as §3, §4

SEX4 [4] = target: T1, SEX4; experiment: Phosphatase assay against pNPP, SEX4; conditions: for Inhibition model, pNPP assay, SEX4: determined by steady-state kinetic measurements
Protocol: as §1, §6, §3, §4, §5

[5] = 45 μg amylopectin, inhibitor 0–0.2 mM, average ± standard error of three measurements, read-out: IC50, amylopectin assay, SEX4
[6] = amylopectin 5–45 μg, inhibitor at IC50 concentration, average ± standard error of three measurements, read-out: Ki, amylopectin assay, SEX4
[7] = not determined with the maximum concentration of candidate compounds, read-out: IC50, amylopectin assay, LSF2
[8] = average ± standard error of three measurements, read-out: IC50, pNPP assay, LSF2
[9] = 50 mM pNPP, inhibitor 0–0.2 mM, average ± standard error of three measurements, read-out: IC50, pNPP assay, SEX4
[10] = pNPP 0.5–50 mM, inhibitor at IC50 concentration, average ± standard error of three measurements, read-out: Ki, pNPP assay, SEX4

Row | Structure (SMILES) | IC50 (SEX4 [1]; [5]) [µM] | Ki (SEX4 [1]; [6]) [µM] | Selectivity between SEX4 and LSF2 (SEX4 [1]) | Inhibition model, amylopectin assay, SEX4 (SEX4 [1]) | IC50 (LSF2 [2]; [7]) [µM] | IC50 (LSF2 [3]; [8]) [µM] | IC50 (SEX4 [4]; [9]) [µM] | Inhibition model, pNPP assay, SEX4 (SEX4 [4]) | Ki (SEX4 [4]; [10]) [µM] | IC50 (SEX4 [1]) [µM] | Ki (SEX4 [1]) [µM] | IC50 (LSF2 [2]) [µM] | IC50 (LSF2 [3]) [µM] | IC50 (SEX4 [4]) [µM] | Ki (SEX4 [4]) [µM] | IC50 for SEX4 compared with that of LSF2, pNPP assay (SEX4 [4]; SEX4 vs LSF2) | IC50 (SEX4 [1]; read-out: IC50, amylopectin assay, SEX4) [µM] | Ki (SEX4 [1]; read-out: Ki, amylopectin assay, SEX4) [µM] | IC50 (SEX4 [4]; read-out: IC50, pNPP assay, SEX4) [µM] | Ki (SEX4 [4]; read-out: Ki, pNPP assay, SEX4) [µM]
1 | O=C(O)c1cc(O)c2c(c1)[C@@H]([C@@H]1c3cc(C(=O)O)cc(O)c3C(=O)c3c(OC4OC(CO)C(O)C(O)C4O)cccc31)c1cccc(OC3OC(CO)C(O)C(O)C3O)c1C2=O (stereo partly shown) [Compound G11, Sennoside] | 9.72 ± 0.008 | 7.81 ± 0.005 | selective for SEX4 | Competitive | > 50 | 23.03 ± 0.029 | 25.75 ± 0.017 | Uncompetitive | 33.87 ± 0.019 |  |  |  |  |  |  |  |  |  |  | 
2 | Cc1c(O)nc2[nH]c(=O)sc2c1C [Compound H03, Thiazolo[4,5-b]pyridin-2(3H)-one, 5-hydroxy-6,7-dimethyl] | 13.05 ± 0.024 | 29.84 ± 0.025 |  | Competitive |  | 49.58 ± 0.047 | 39.58 ± 0.016 | Uncompetitive | 42.34 ± 0.037 |  |  |  |  |  |  |  |  |  |  | 
3 | O=C1C=CC(=O)c2c(O)ccc(O)c21 [Compound F09, Naphthazarin] |  |  | selective for SEX4 | Uncompetitive |  |  |  | Mixed-model |  | 7.49 ± 0.016 | 16.42 ± 0.012 | > 50 | 23.97 ± 0.028 | 15.83 ± 0.018 | 39.81 ± 0.026 |  |  |  |  | 
4 | CCCCCC/C=C\CCCCCCCc1cccc(O)c1C(=O)O [Compound F05, Ginkgolic acid] | 21.1 ± 0.021 | 20.81 ± 0.021 |  | Uncompetitive | > 50 | 21.26 ± 0.008 |  | Uncompetitive | 6.87 ± 0.007 |  |  |  |  | 5.18 ± 0.014 |  | approximately four times lower |  |  |  | 
5 | CC(C)=CCc1c(-c2ccc(O)cc2O)oc2c(C3C=C(C)CC(C(=O)c4ccc(O)cc4O)C3c3ccc(O)cc3O)c(O)cc(O)c2c1=O (stereo not shown) [Compound H08, Moracenin B] | 16.49 ± 0.051 | 31.12 ± 0.027 |  | Uncompetitive | > 50 | 22.92 ± 0.025 | 18.69 ± 0.026 | Uncompetitive | 20.84 ± 0.023 |  |  |  |  |  |  |  |  |  |  | 
6 | O=C(OCC1OC(OC(=O)c2cc(O)c(O)c(O)c2)C(OC(=O)c2cc(O)c(O)c(O)c2)C(OC(=O)c2cc(O)c(O)c(O)c2)C1OC(=O)c1cc(O)c(O)c(O)c1)c1cc(O)c(O)c(O)c1 [Compound G07, Penta-O-gallolyl-β-D-glucose] |  |  |  |  | > 50 | 13.39 ± 0.036 |  |  |  |  |  |  |  |  |  |  | 38.61 ± 0.022 | 46.4 ± 0.032 | 30.91 ± 0.021 | 37.31 ± 0.026
7 | CCCc1c(O)nc2[nH]c(=O)sc2c1C [Compound D04, Thiazolo[4,5-b]pyridin-2(3H)-one, 5-hydroxy-7-methyl-6-propyl] | 57.33 ± 0.34 | 28.31 ± 0.014 |  | Competitive |  | 44.82 ± 0.022 | 21.6 ± 0.008 | Uncompetitive | 25.41 ± 0.012 |  |  |  |  |  |  |  |  |  |  | 
